Columns and labels:
[1] = system: rheumatoid arthritis (RA); details: treating rheumatoid arthritis; cited from earlier work
[2] = cited from earlier work
rheumatoid arthritis [3] = details: IV, initial 40 mg/m^2, final 26 mg/m^2; 10 test persons; infected plantar or severe nausea; cited from earlier work
patients with RA [4] = experiment: STEMETRA open-label pilot study, efficacy (DAS28) of step-down SC-MTX; format: in vivo, human
Description: (§1) The STEp-down MEthotrexate Therapy in Rheumatoid Arthritis (STEMETRA) was an open-label, monocentric, pilot study with the primary aim of assessing the safety and the tolerability of high dose subcutaneous (SC)-MTX in patients with RA. […] In view of the exploratory nature of this study, the expected enrolment was of 10 patients. Patients received a SC-MTX commercially available formulation (Reumaflex®, Alfasigma, Italy), dispensed as prefilled syringes of 25 mg, 20 mg, and 15 mg. For reaching the dosage of 50 mg at the beginning of the study, patients injected two SC-MTX 25 mg syringes consecutively.
In the present experimental examples, the Disease Activity Score based on 28 joints (DAS28) testing was carried out according to the protocols described in Fransen J. et al., “Rheumatoid Arthritis measures: Disease Activity Score (DAS), Disease Activity Score-28 (DAS28), Rapid Assessment of Disease Activity in Rheumatology (RADAR), and Rheumatoid Arthritis Disease Activity Index (RADAI)”, Arthritis Rheum 2003; 49, Suppl 9: pages 214 to 224, as well as described in van der Heijde D. M. et al., “Development of a disease activity score based on judgment in clinical practice by rheumatologists”, J Rheumatol. 1993 March, 20(3), pages 579 to 581.
(§2) The protocol treatment schedule comprised administration of SC-MTX 50 mg/week for 4 consecutive weeks, followed by 25 mg/week for 4 weeks, and then 15 mg/week for 4 weeks. All patients received oral supplementation of folinic acid (leucovorin) 12 mg, twelve hours after the injection of SC-MTX. All patients had to be MTX-naïve; previous treatment with other conventional synthetic disease modifying anti-rheumatic drugs (cs)DMARDs was allowed only if they have already been withdrawn, for inefficacy or tolerability, before the baseline visit.
Eligible patients were≥18 years old affected by rheumatic arthritis (RA), according to the 2010 American College of […]/European league against rheumatism (ACR/EULAR) classification criteria^12, naïve to MTX and with an active disease, defined as a value of disease activity score (DAS)28≥3.2, with at least four tender joints and four swollen joints. Main exclusion criteria were: ongoing or previous treatment with bDMARDs, severe anaemia (defined as haemoglobin<[…]), severe thrombocytopenia (defined as platelets count<100,000/mm^3), severe leucopoenia or neutropenia (defined as white blood cells count<3,000 mm^3 or granulocytes count<1,000 mm^3), severe hepatic dysfunction [defined as aspartate aminotransferase (AST) or alanine aminotransferase (ALT)[…] the upper limit of normal(ULN)], renal function impairment (defined as creatinine clearance<40 mL/min), alcohol intake>70 g/week, pregnancy or breastfeeding, ongoing severe infections, previous infection with Hepatitis B (HBV) or Hepatitis C (HCV), positivity of Quantiferon or Mantoux test.
During each visit, disease activity score based on 28 joints (DAS28) [with both erythrocytes sedimentation rate (ESR) and C-reactive protein (CRP)], simplified disease activity index (SDAI), clinical disease activity index (CDAI), and the Health Assessment Questionnaire (HAQ) were evaluated and calculated as efficacy measures.

patients with RA [5] = experiment: STEMETRA open-label pilot study, safety and tolerability (adverse events, CTCAE v4.0); format: in vivo, human
Description: as §1, §2
If a patient experience fatigue (with an intensity≥grade 2), he/she could receive a double dose of folinic acid: 12 mg at 12 and 24 hours after SC-MTX, respectively.
All the adverse events (AE) occurred during the study and follow-up periods were recorded according to the Common Terminology Criteria for Adverse Events (version 4.0).

patients = details: long-term data; cited from earlier work
rheumatoid arthritis [6] = details: IV 50 mg/week for 2 to 20 weeks; 14 test persons; oral ulceration, GI symptoms, liver enzyme abnormalities; cited from earlier work
[7] = system: refractory rheumatoid arthritis; details: IV 500 mg/m^2, 24 weeks, plus oral folinic acid 25 mg/m^2; 8 test persons; inefficacy, GI intolerance or sciatica; cited from earlier work
[8] = system: resistant rheumatoid arthritis; details: oral, 5 to 10 to 15 mg/m^2 within 16 weeks; 36 test persons; cited from earlier work
[9] = system: active rheumatoid arthritis; details: intramuscular, 15 to 45 mg/m^2 within 22 weeks, plus 5 mg folinic acid per week; 27 test persons; recurrent chest infections or inefficacy; cited from earlier work
[10] = week 12, nine patients, step-down SC-MTX 50/25/15 mg/week, oral folinic acid 12 mg
[11] = nine patients, study and follow-up periods

## CN(Cc1cnc2nc(N)nc(N)c2n1)c1ccc(C(=O)N[C@@H](CCC(=O)O)C(=O)O)cc1 [MTX, (2S)-2-[[4-[(2,4-diaminopteridin-6-yl)methyl-methylamino]benzoyl]amino]-pentanedioic acid]
[1]
  efficacy rate as a monotherapy: about 35%
[2]; oral (OR-MTX)
  dose over which absorption is known to plateau: 15 mg
[2]; oral
  dosage at which oral absorption starts to plateau: 15 mg/week
Rheumatoid arthritis [3]
  test persons who did not complete the study: Two
Patients with RA [4]; step-down SC-MTX regimen, discussion summary
  patients with a significant reduction of DAS28: ~90%
Patients with RA [4]; week 12, 8 out of 9 patients, step-down SC-MTX 50/25/15 mg/week, oral folinic acid 12 mg
  patients showing a reduction in DAS28>1.2 from baseline: 88.8%
Patients with RA [4]; week 12, nine patients, SC-MTX 50 mg/week 4 weeks, then 25 mg/week 4 weeks, then 15 mg/week 4 weeks, oral folinic acid 12 mg
  patients who achieved DAS28 remission: 44.4%
Patients with RA [4]; [10]
  patients showing moderate disease activity (DAS28): 11.1%
  patients who reached low disease activity (DAS28): 22.2%
  patients who still had high disease activity (DAS28): 22.2%
Patients with RA [5]; Patient #6, week 4, resolved spontaneously, normal at week 8
  increase of alanine aminotransferase (ALT): < 2 ULN
Patients with RA [5]; [11]
  number of patients in whom AEs occurred: 4
  total number of AEs: 5
Patients with RA [5]; nine patients, whole study
  severe AEs: none
Patients with RA [5]; week 4
  number of patients with a mild (and transitory) increase in ALT: one
Patients with RA [5]; while taking SC-MTX 50 mg/week
  AEs occurring in the first 4 weeks: none
patients
  patients who could experience liver enzymes elevation: more than 10%
  patients who had to stop MTX because of liver enzymes elevation: less than 5%
Rheumatoid arthritis [6]
  test persons who had to reduce or discontinue the treatment due to toxicity: 35%
[7]
  test persons who withdrew the treatment: 37%
[8]
  test persons who discontinued the treatment due to high toxicity: 33%
[9]
  test persons who discontinued the treatment: 18.5%
